The values that follow come from patent US9586951B2 (FUJIFILM Corporation, priority 2013, dated 2017).

In this test the target is T1, ATM (Homo sapiens, UniProt Q13315).
T1 construct: detecting phosphorylation of Chk2 in a human non-small cell lung cancer cell line NCI-H460 (ATCC company); host or cells: NCI-H460 human non-small cell lung cancer cells
T1 sequence (Q13315 whole entry): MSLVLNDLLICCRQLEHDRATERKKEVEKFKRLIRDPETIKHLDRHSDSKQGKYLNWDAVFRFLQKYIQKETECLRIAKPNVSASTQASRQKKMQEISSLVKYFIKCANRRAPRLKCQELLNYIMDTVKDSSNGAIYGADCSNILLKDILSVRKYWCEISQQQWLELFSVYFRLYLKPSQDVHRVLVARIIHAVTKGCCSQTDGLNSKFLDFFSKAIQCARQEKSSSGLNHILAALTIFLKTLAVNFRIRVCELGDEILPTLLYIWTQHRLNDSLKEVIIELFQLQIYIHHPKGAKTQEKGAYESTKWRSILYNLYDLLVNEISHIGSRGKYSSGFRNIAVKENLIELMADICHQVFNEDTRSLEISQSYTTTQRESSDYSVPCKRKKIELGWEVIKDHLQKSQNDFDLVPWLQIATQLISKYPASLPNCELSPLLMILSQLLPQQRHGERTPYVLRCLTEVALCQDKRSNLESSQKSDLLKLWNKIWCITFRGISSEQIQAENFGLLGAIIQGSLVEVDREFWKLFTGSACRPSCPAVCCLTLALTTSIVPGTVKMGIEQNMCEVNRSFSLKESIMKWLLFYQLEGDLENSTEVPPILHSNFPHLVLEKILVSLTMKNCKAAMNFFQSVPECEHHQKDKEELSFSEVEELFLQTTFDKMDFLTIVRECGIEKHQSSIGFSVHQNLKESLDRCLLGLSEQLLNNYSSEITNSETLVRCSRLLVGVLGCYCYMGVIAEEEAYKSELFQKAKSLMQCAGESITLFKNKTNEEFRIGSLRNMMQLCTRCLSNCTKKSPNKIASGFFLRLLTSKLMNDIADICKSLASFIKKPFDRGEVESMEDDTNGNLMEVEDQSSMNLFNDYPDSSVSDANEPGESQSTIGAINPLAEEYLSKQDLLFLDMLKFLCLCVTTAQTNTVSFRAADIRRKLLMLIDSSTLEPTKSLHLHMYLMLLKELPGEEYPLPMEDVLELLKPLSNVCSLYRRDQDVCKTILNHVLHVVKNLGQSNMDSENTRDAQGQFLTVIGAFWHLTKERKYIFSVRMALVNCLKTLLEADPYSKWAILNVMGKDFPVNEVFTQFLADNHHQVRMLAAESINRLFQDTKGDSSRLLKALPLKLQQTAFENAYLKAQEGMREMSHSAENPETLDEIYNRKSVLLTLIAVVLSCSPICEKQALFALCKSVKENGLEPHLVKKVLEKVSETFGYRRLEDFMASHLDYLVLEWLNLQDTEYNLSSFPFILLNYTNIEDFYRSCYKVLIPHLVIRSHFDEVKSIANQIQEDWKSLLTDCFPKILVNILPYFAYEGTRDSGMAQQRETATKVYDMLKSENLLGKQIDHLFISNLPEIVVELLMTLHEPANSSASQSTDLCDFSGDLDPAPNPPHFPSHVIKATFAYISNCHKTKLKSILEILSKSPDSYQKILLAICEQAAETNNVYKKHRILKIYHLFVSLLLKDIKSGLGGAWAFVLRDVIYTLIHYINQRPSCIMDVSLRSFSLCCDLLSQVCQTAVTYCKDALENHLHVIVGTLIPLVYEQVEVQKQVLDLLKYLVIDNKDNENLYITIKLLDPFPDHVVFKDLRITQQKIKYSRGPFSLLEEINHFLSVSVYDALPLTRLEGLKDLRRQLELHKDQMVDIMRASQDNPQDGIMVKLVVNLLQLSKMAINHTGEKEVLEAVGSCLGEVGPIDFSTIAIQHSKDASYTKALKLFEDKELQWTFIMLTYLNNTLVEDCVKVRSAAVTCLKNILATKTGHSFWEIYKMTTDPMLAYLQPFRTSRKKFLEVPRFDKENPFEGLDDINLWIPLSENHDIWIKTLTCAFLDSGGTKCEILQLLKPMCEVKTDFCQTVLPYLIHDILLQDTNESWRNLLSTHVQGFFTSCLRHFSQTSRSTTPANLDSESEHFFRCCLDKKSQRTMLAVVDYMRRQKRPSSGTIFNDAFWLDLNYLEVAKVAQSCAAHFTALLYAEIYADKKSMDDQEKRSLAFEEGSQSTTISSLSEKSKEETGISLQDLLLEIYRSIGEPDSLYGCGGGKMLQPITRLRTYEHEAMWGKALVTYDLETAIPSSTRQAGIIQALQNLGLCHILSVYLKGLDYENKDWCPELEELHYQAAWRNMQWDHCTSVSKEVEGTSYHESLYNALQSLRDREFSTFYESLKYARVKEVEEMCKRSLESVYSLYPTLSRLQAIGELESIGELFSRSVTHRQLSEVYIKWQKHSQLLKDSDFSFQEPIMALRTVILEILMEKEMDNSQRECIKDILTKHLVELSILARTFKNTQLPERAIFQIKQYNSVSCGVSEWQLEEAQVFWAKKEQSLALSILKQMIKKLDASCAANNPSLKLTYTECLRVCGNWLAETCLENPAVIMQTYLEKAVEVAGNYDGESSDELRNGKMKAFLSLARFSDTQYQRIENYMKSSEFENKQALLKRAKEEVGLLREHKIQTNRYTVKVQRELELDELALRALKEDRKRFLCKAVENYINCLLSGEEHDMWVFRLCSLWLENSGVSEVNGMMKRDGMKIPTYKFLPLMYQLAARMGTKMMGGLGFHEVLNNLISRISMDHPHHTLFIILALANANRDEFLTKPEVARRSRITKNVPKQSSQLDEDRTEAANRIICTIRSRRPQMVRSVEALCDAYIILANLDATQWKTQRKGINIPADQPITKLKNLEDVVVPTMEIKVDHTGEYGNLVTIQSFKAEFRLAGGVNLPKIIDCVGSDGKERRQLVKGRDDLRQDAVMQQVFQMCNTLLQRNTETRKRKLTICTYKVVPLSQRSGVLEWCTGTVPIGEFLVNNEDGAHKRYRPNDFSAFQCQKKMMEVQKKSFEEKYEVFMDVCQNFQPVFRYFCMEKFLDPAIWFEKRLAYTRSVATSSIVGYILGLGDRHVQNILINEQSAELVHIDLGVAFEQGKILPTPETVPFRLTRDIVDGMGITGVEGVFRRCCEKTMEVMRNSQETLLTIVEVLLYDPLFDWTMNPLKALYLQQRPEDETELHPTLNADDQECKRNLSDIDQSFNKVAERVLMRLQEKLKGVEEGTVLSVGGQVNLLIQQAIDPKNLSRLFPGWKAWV
Kind of test: ATM inhibition test (phosphorylation of Chk2 generated by ionizing radiation, AlphaScreen SureFire). The test is classed as cell-based. Conditions: phosphorylated Chk2 in NCI-H460 cells, ionizing radiation 8Gy, 1 hour after test compound treatment; read-out: ATM inhibitory activity. Put shortly:
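NCI-H460 cells, compound 1 h pre-treatment, 8Gy IR, further 1 h at 37° C in 5% CO2. Read-out: phospho-Chk2 via AlphaScreen SureFire. % inhibition relative to IR-induced signal window (irradiated vs non-irradiated drug-free wells).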
A general note: In Alpha technology, singlet oxygen from a donor bead excites a nearby acceptor bead.
Take `Nc1ccc2c(c1)Sc1cccc(-c3cc(N4CCOCC4)cc(=O)[nH]3)c1O2` [Example 4-2, 6-(8-Aminophenoxathiin-4-yl)-4-morpholinopyridin-2(1H)-one]: the IC50 was in the range of 100 to 500 nM.
For the molecule `CCCCC(Nc1ccc2c(c1)Sc1cccc(-c3cc(N4CCOCC4)cc(=O)[nH]3)c1S2)[C@H](C)N1CCOCC1` (stereo partly drawn) [Example 1-21-2, 4-Morpholino-6-(7-(((2S)-2-morpholinoheptan-3-yl)amino)thianthren-1-yl) pyridin-2(1H)-one], the IC50 was 100 to 500 nM.
With `Cc1ccc(C(Nc2ccc3c(c2)Sc2cccc(-c4cc(N5CCOCC5)cc(=O)[nH]4)c2S3)[C@H]2CCCN2C)nc1` (single isomer, unassigned) [Example 1-56-5], the IC50 is below 100 nM.
As for `CCCC(Nc1ccc2c(c1)Sc1cccc(-c3cc(N4CCOCC4)cc(=O)[nH]3)c1S2)c1cncc(OC)c1` (stereo not shown) [Example 1-12-26, 6-(7-((1-(5-Methoxypyridin-3-yl)butyl)amino)thianthren-1-yl)-4-morpholino pyridin-2 (1H)-one], the IC50 was in the range of 100 to 500 nM.
Regarding `Cc1ccc(C(C[C@@H]2CCCN2C)Nc2ccc3c(c2)Sc2cccc(-c4cc(N5CCOCC5)cc(=O)[nH]4)c2S3)nc1` (single isomer, unassigned) [Example 12-2], the IC50 lay in the range of 100 to 500 nM.
For `COCCN1CCOC(C(Nc2ccc3c(c2)Sc2cccc(-c4cc(N5CCOCC5)cc(=O)[nH]4)c2S3)c2ccc(C)cn2)C1` (single isomer, unassigned) [Example 1-56-8, 6-(7-(((4-(2-Methoxyethyl)morpholin-2-yl)(5-methylpyridin-2-yl)methyl)amino)thianthren-1-yl)-4-morpholino pyridin-2(1H)-one] the value was below 100 nM.
With `O=c1cc(N2CCOCC2)cc(-c2cccc3c2Sc2ccc(NCCN4CCSCC4)cc2S3)[nH]1` [Example 1-16-4, 4-Morpholino-6-(7-((2-thiomorpholinoethyl)amino)thianthren-1-yl)pyridin-2(1H)-one], the IC50 is below 100 nM.
In the case of `N#CCN1CCC(Nc2ccc3c(c2)Cc2cccc(-c4cc(N5CCOCC5)cc(=O)[nH]4)c2O3)CC1` [Example 2-30-1, 2-(4-((5-(4-morpholino-6-oxo-1,6-dihydropyridin-2-yl)-9H-xanthen-2-yl)amino)piperidin-1-yl)acetonitrile], the IC50 lay within 100 to 500 nM.
Turning to `CC(C)(C)NCCNc1ccc2c(c1)Sc1cccc(-c3cc(N4CCOCC4)cc(=O)[nH]3)c1S2` [Example 1-10-13, 6-(7-((2-(tert-Butylamino)ethyl)amino)thianthren-1-yl)-4-morpholino pyridin-2 (1H)-one], the IC50 is 500 to 2000 nM.
In the case of `COC[C@H](CN1CCOCC1)Nc1ccc2c(c1)Sc1cccc(-c3cc(=O)cc(N4CCOCC4)o3)c1S2` [Example 11-3, (S)-2-(7-((1-methoxy-3-morpholinopropan-2-yl)amino)thianthren-1-yl)-6-morpholino-4H-pyran-4-one], the IC50 was below 100 nM.
With `CNc1ncc(C(C)Nc2ccc3c(c2)Cc2cccc(-c4cc(N5CCOCC5)cc(=O)[nH]4)c2O3)cn1` (stereo not shown) [Example 2-14-54, 6-(7-((1-(2-(Methylamino)pyrimidin-5-yl)ethyl)amino)-9H-xanthen-4-yl)-4-morpholino pyridin-2(1H)-one], the IC50 was in the range of 100 to 500 nM.
For `CC(=O)Nc1ccc(CCN2CCC(Nc3ccc4c(c3)Cc3cccc(-c5cc(N6CCOCC6)cc(=O)[nH]5)c3O4)CC2)cc1` [Example 2-32, N-(4-(2-(4-((5-(4-morpholino-6-oxo-1,6-dihydropyridin-2-yl)-9H-xanthen-2-yl)amino)piperidin-1-yl)ethyl)phenyl)acetamide], the IC50 was in the range of 100 to 500 nM.
Turning to `Cc1cccc(CNc2ccc3c(c2)Cc2cccc(-c4cc(N5CCOCC5)cc(=O)[nH]4)c2O3)n1` [Example 2-2-24, 6-(7-(((6-Methylpyridin-2-yl)methyl)amino)-9H-xanthen-4-yl)-4-morpholino pyridin-2(1H)-one], the IC50 fell in the range of 100 to 500 nM.
